Results: patent US5827846A, “Carbazole derivatives as agents against multi-drug resistance” (Novartis Corp., priority 1994, dated 1998)

How the values were obtained:
[1] = tested on: KB-8511 (drug-resistant, P-glycoprotein [Pgp] overexpressing) cells; test: Inhibition of cell growth of drug-resistant KB-8511 cells (methylene blue staining, 4 days); format: cell-based, Human; details: 5760 min
Protocol: The KB-8511 cells are kept as stock in the presence of 10 ng/ml of the antineoplastically active substance Colcemid (demecolcine). […] The plates are then incubated under the conditions mentioned above for 4 days. […] After washing, the dye is eluted with 3% (w/v) aqueous hydrochloric acid. The optical density (OD) per well, which is directly proportional to the number of cells, is then measured with a photometer at 665 nm. The IC50 values are calculated by means of a computer system, using the formula

human KB-8511 tumours = test: In vivo antitumour activity against multidrug-resistant KB-8511 tumours in nude mice; set-up: species or system female Balb/c nude mice; details: for T/C [%] (median tumour volumes treated versus control): KB-8511 tumour
Protocol: (§1) The determination of the in vivo antitumour activity of test substance B (=N-benzoyl-6-benzyl-staurosporin) against the drug-sensitive parental KB-31 and a multidrug-resistant variant of the KB-31, i.e. the multidrug-resistant variant KB-8511, tumours is carried out in female Balb/c nude mice (Bomholdgaard, Copenhagen, Denmark) bearing serially passaged (minimum of three consecutive transplantations) either the human parental drug-sensitive KB-31 tumours or the human KB-8511 tumours. The KB-8511 tumours overexpress Pgb, the product of the mdr-1 gene (S. Akiyma et al., "Isolation and genetic characterization of human KB cell lines resistant to multiple drug", Somatic Cell and Mol. Gen. 11, 117-126 [1985]). Tumour fragments of approximately 25 mg are transplanted into the left flank of each animal (n=6 per group). […] Tumour growth is monitored twice weekly by measuring perpendicular diameters. Tumour volumes are determined as described by T. Meyer et al., Int. J. Cancer 43, 851-856 (1989), and expressed as relative tumour size (i.e. the increase in tumour volume compared with the tumour volume at the start of the treatment).

[2] = tested on: human parental drug-sensitive KB-31 tumours; test: In vivo antitumour activity against drug-sensitive KB-31 tumours in nude mice; set-up: species or system female Balb/c nude mice; details: KB-31 tumour
Protocol: as §1

Structure (SMILES): CC[C@]1(O)C[C@@H]2CN(CCc3c([nH]c4ccccc34)[C@@](C(=O)OC)(c3cc4c(cc3OC)N(C)[C@H]3[C@@](O)(C(=O)OC)[C@H](OC(C)=O)[C@]5(CC)C=CCN6CC[C@]43[C@@H]65)C2)C1 [A, vinblastine]
- % growth of KB 8511 cells ([1]; A 2.34 ng/ml alone): 101%
- % growth of KB 8511 cells ([1]; A 4.69 ng/ml alone): 101%
- % growth of KB 8511 cells ([1]; A 9.38 ng/ml alone): 98%
- % growth of KB 8511 cells ([1]; A 18.8 ng/ml alone): 98%
- % growth of KB 8511 cells ([1]; A 37.5 ng/ml alone): 98%
- % growth of KB 8511 cells ([1]; A 75.0 ng/ml alone): 90%
- % growth of KB 8511 cells ([1]; A 150 ng/ml alone): 66%
- % growth of KB 8511 cells ([1]; A 300 ng/ml alone): 14%

Structure (SMILES): CO[C@@H]1[C@H](N(C)C(=O)c2ccccc2)C[C@H]2O[C@]1(C)n1c3ccccc3c3c4c(c5c6ccccc6n2c5c31)C(=O)N(Cc1ccccc1)C4 [B, N-benzoyl-6-benzyl-staurosporin]
- Sensitisation of KB-8511 tumours to adriamycin (human KB-8511 tumours; 25 mg/kg p.o. 4 hours prior to adriamycin 9.0 mg/kg i.v.): sensitises the multi-drug resistant KB-8511 tumours to adriamycin
- T/C [%] (median tumour volumes treated versus control) (human KB-8511 tumours; 1 × 25 mg/kg p.o.): 93%
- T/C [%] (median tumour volumes treated versus control) ([2]; 1 × 25 mg/kg p.o.): 91%
- % growth of KB 8511 cells ([1]; B 0.1 μmol alone): 92%
- % growth of KB 8511 cells ([1]; B 1 μmol alone (Example 10)): 95%
- % growth of KB 8511 cells ([1]; B 1 μmol alone (Example 11)): 82%

Structure (SMILES): COc1cccc2c1C(=O)c1c(O)c3c(c(O)c1C2=O)C[C@@](O)(C(=O)CO)C[C@@H]3O[C@H]1C[C@H](N)[C@H](O)[C@H](C)O1 [C, adriamycin]
- T/C [%] (median tumour volumes treated versus control) (human KB-8511 tumours; 1 × 9 mg/kg i.v.): 89%
- T/C [%] (median tumour volumes treated versus control) ([2]; 1 × 9 mg/kg i.v.): 13%
- Maximal tumour regression ([2]; adriamycin 1×9 mg/kg i.v. alone, on day 5): 24%
